Results: PMC10165273, “Itch receptor MRGPRX4 interacts with the receptor activity–modifying proteins” (The Journal of Biological Chemistry, 2023)
In brackets after ≈: the same amount, converted by molar mass. Several values for one entry are separate records, joined by “and”; a condition that tells them apart may be missing. Equal values may be shown once. *1 amine or outer side, *2 acyl side, *3 side chain or, on linkers, in order; H or OH if unused. Where a SMILES comes first, the peptide text is derived from it. Bridges are numbered along the chain shown (N, C = ends). [ ]: non-standard residue; d: D form. X1 = CC(=O)NC(C(=O)OC(C(C)C)C(N[*:1])C(=O)[*:2])C(O)C(C)C; PhLac = O=C(O)[CH](O)Cc1ccccc1; NMeT = CN[CH](C(=O)O)[CH](C)O; NMeA = CN[CH](C)C(=O)O; NMeDha = C=C(NC)C(=O)O

Key:
[1] = system: mock-transfected HEK293T cells; assay: IP1 accumulation, mock-transfected cells; assay type: cell-based, human; design: IP1 Basal / IP1 span / IP1 Emax / IP1 accumulation, dose-response (Figure 1a) / IP1 accumulation with YM (Figure 1c) / IP1 accumulation: unit not given here; conditions: for IP1 Basal / IP1 Emax / IP1 span: Mock
Experimental: (§1) HEK293T cells were transfected with 1 pg/cell of MRGPRX4 DNA, and the amount of DNA was kept constant at 2 pg/cell with pcDNA3.1(+) empty vector, unless otherwise specified. Twenty four hours after transfection, IP1 assay was performed as previously described ([51]). When applicable, cells were treated with 1 μM YM254890 (YM) or different concentrations of U73122 for 1 h prior to addition of agonist or buffer. After incubation for 2 h, HTRF reagents and IP1 calibration standards were added and incubated for 2 h in the dark at room temperature. Time-resolved fluorescence signals were read on the BioTek Synergy NEO-TRF Hybrid multi-mode reader (BioTek Instruments). All data were carried out in three independent experiments with three technical replicate each.
(§2) Validation of CALCRL constructs was assayed by cotransfecting HEK293T cells with different tagged versions of CALCRL alone or with each RAMP and with the promiscuous Gqs5 Gq chimera protein, at a respective DNA ratio of 1:1:0.5. Gqs5 is an engineered Gq protein containing the last five amino acid residues of Gs, which allows Gs-coupled GPCRs to signal through Gq downstream signaling pathways ([55]). The homogenous transfection method described above was used for all DNA mixes. CALCRL:RAMP2:Gqs5-transfected cells served as positive control for RAMP functionality.
(§3) Data reduction, standard calibration, and transformation of HTRF data were performed as previously described ([51]). Normalized IP1 values were calculated relative to the unstimulated mock-transfected cells (set to 0%) and fully stimulated MRGPRX4 (alone if applicable) (set to 100%).

[2] = biological target: T1, CALCRL (Homo sapiens, UniProt Q16602); assay: IP1 accumulation, CALCRL alone with Gqs5; assay type: cell-based
T1 construct: 5-HT3a receptor signal peptide (X1) (N); expressed in transfected cells; host or cells: HEK293T
Experimental: as §2, §3

[3] = biological target: T2, CALCRL + RAMP3 (Homo sapiens, UniProt O60896+Q16602); assay: IP1 accumulation, CALCRL with RAMP3 and Gqs5; assay type: cell-based
T2 construct: 5-HT3a receptor signal peptide (X1) (N); expressed in transfected cells; host or cells: HEK293T
Experimental: as §2, §3

[4] = biological target: T3, MRGPRX4 (Homo sapiens, UniProt Q96LA9); assay: IP1 accumulation HTRF assay, MRGPRX4; assay type: cell-based; design: key to IP1 Basal / IP1 accumulation with YM (Figure 1c) / response to agonist, MRGPRX4 / IP1 accumulation: % IP1: unstimulated mock-transfected = 0%, fully stimulated MRGPRX4 = 100%; conditions: for effect on nateglinide and DCA IP1 responses: inhibitor pretreatment 1 h (Fig. S1D-E); for effect on MRGPRX4 basal IP1 activity: no agonist (Figs. 1C and S1E); for IP1 accumulation with YM (Figure 1c): YM 1 µM, no agonist
T3 construct: expressed in transfected cells; host or cells: HEK293T
Experimental: as §1
(§4) For characterization of the Tet-On Nluc-HT7-MRGPRX4-GFP10-1D4 construct, HEK293T cells were transfected as previously described with some modifications. Dox dose-response of NLuc-HT7-MRGPRX4-GFP10-1D4 DNA titration was assayed by transfecting HEK293T cells with either 1 or 2 pg/cell of NLuc-HT7-MRGPRX4-GFP10-1D4 construct. Receptor expression was induced 4 h after transfection with addition of different concentrations of dox for 20 h. For the RAMP DNA titration assay, cells were cotransfected with a constant amount of 1 pg/cell of NLuc-HT7-MRGPRX4-GFP10-1D4 DNA and 1, 0.75, 0.5, or 0 pg/cell of each HA-RAMP-OLLAS with the homogenous transfection method. Four hours after transfection, receptor expression was induced with addition of 1000 ng/ml dox. Twenty hours after induction, IP1 assay was performed.
as §3

[5] = system: Tet-On MRGPRX4; assay: dox-induced total receptor expression, Nano-Glo luminescence; assay type: cell-based, human; conditions: normalized total luminescence (Fig. S5I); for EC50: Homo sapiens
Experimental: as §4
HEK293T cells were transfected with 1 pg/cell of Tet-On FLAG-NLuc-HT7-MRGPRX4-GFP10-1D4 alone or coexpressed with 0.7, 0.5, 0.3, or 0.1 pg/cell of each RAMP, and expression was induced 4 h after transfection with 1000 ng/ml dox. HEK293T cells transfected with 1 pg/cell of Tet-On CALCRL alone or with 0.5 pg/cell of RAMP2 served as controls. Twenty hours after transfection, media was replaced with BRET buffer. First, the HT7-tagged GPCR was labeled with “pulse” of 100 nM HaloTag Alexa Fluor 660 (cell impermeable, emission 690 nm) for 2 h at 16 °C in the dark. Next, a chase step was performed by adding 100 nM HaloTag 618 (cell permeable, emission 620 nm) for 2 h at 16 °C in the dark. Lastly, Nano-Glo Luciferase assay reagent was prepared per manufacturer’s instructions. Optimal dosage of dox was determined by selecting the concentration at the plateau from a dox dose-response experiment, in which dox-induced expression was assayed with the additional of Nano-Glo Luciferase assay reagent (Fig. S5I).
Data were acquired by measuring the luminescence at 460, 618, and 690 nm in kinetics mode on a SpectraMax i3X at 37 °C. The obtained emission intensity values were corrected, normalized, plotted against each other, and fitted to a linear equation to generate a scaling factor that was then used to calculate and graph the percentage surface labeling. Experiments were conducted in biological triplicate with three technical replicates each. The corrected 690/460 BRET ratio was normalized to the mean of MRGPRX4 alone (+dox). Similarly, total expression was normalized to the mean of the 460 nm luminescence for MRGPRX4 alone (+dox).

[6] = HA-CALCRL-1D4 series (Fig. S4J-L)
[7] = HA-CALCRL-GFP10-1D4 series (Fig. S4G-I)
[8] = HA-CALCRL-1D4 alone (Fig. S4J-L)
[9] = HA-CALCRL-GFP10-1D4 alone (Fig. S4G-I)
[10] = HA-CALCRL-1D4 + FLAG-RAMP3-OLLAS (Fig. S4J-L)
[11] = HA-CALCRL-1D4 + HA-RAMP3-OLLAS (Fig. S4J-L)
[12] = HA-CALCRL-GFP10-1D4 + FLAG-RAMP3-OLLAS (Fig. S4G-I)
[13] = HA-CALCRL-GFP10-1D4 + HA-RAMP3-OLLAS (Fig. S4G-I)
[14] = Tet-On MRGPRX4+RAMP2 (DNA ratio 1:0.5)

T3 sequence (Q96LA9 whole entry): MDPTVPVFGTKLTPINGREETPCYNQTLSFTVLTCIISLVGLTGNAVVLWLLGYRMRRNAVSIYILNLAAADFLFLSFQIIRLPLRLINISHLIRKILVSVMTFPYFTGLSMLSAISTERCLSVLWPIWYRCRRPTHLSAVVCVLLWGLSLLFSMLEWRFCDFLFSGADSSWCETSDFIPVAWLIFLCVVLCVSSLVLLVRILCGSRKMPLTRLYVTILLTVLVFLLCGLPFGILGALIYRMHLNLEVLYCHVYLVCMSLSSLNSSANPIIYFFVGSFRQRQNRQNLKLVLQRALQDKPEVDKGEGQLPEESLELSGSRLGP
T1 sequence (Q16602 23-461): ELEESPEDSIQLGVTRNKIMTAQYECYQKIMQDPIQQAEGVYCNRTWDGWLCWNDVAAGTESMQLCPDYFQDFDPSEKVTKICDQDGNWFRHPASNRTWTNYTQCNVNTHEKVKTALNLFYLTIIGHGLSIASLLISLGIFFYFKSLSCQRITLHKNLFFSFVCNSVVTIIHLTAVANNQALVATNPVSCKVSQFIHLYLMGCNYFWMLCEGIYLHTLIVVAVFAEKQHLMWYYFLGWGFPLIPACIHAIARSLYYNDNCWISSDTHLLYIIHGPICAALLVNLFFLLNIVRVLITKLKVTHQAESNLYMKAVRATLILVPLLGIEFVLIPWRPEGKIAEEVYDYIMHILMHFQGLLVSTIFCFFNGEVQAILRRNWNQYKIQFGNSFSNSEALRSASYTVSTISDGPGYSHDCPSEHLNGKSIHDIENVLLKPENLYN
T2 sequence (Q16602 23-461): as above
T2 sequence (O60896 28-148 limits assumed): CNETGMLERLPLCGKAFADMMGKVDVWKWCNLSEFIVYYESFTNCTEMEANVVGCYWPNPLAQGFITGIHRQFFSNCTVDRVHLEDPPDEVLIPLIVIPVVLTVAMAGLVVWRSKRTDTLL

For CC[C@H](C)[C@H](NC(=O)[C@H](CCC(N)=O)NC(=O)[C@H](Cc1c[nH]cn1)NC(=O)[C@H](C)NC(=O)[C@H](CC(C)C)NC(=O)[C@H](CCCCN)NC(=O)[C@H](CCC(N)=O)NC(=O)[C@@H](NC(=O)[C@@H](NC(=O)[C@@H]1CSSC[C@H](NC(=O)CNC(=O)[C@H](Cc2ccccc2)NC(=O)[C@H](CO)NC(=O)[C@H](CCCNC(=N)N)NC(=O)[C@H](CC(C)C)NC(=O)CNC(=O)[C@H](CCC(N)=O)NC(=O)[C@H](Cc2ccccc2)NC(=O)[C@H](CC(N)=O)NC(=O)[C@H](CC(N)=O)NC(=O)[C@H](CCSC)NC(=O)[C@H](CO)NC(=O)[C@H](CCC(N)=O)NC(=O)[C@H](CCCNC(=N)N)NC(=O)[C@@H](N)Cc2ccc(O)cc2)C(=O)N[C@@H](CCCNC(=N)N)C(=O)N[C@@H](Cc2ccccc2)C(=O)NCC(=O)N[C@@H]([C@@H](C)O)C(=O)N1)[C@@H](C)O)C(C)C)C(=O)N[C@@H](Cc1ccc(O)cc1)C(=O)N[C@@H](CCC(N)=O)C(=O)N[C@@H](Cc1ccccc1)C(=O)N[C@H](C(=O)N[C@@H](CC(=O)O)C(=O)N[C@@H](CCCCN)C(=O)N[C@@H](CC(=O)O)C(=O)N[C@@H](CCCCN)C(=O)N[C@@H](CC(=O)O)C(=O)N[C@@H](CC(N)=O)C(=O)N[C@H](C(=O)N[C@@H](C)C(=O)N1CCC[C@H]1C(=O)N[C@@H](CCCNC(=N)N)C(=O)N[C@@H](CO)C(=O)N[C@@H](CCCCN)C(=O)N[C@H](C(=O)N[C@@H](CO)C(=O)N1CCC[C@H]1C(=O)N[C@@H](CCC(N)=O)C(=O)NCC(=O)N[C@@H](Cc1ccc(O)cc1)C(N)=O)[C@@H](C)CC)C(C)C)[C@@H](C)O [Adrenomedullin], the “IP1 Basal” value [1, 6] was 0.9133, the “IP1 Emax” value [1, 6] was 0.05397 and the IP1 span [1, 6] was -0.8593. The “IP1 Basal” value [1, 7] was 0.1993, the “IP1 Emax” value [1, 7] was 11.54 and the IP1 span [1, 7] was 11.34. For the same compound, the “IP1 Basal” value [2, 8] was 11.35, the IP1 span [2, 8] was “Unstable” and the Emax [2, 9] was 10.5%. The “IP1 Basal” value [2, 9] was 4.246, the Span [2, 9] was 6.24% and the Emax [3, 10] was 96%. The “IP1 Basal” value [3, 10] was 9.152, the IP1 span [3, 10] was 86.8% and the Emax [3, 11] was 108%. The “IP1 Basal” value [3, 11] was 8.590, the IP1 span [3, 11] was 99.5% and the Emax [3, 12] was 84.9%. The “IP1 Basal” value [3, 12] was 11.09, the IP1 span [3, 12] was 73.8% and the Emax [3, 13] was 102%. The “IP1 Basal” value [3, 13] was 9.590 and the IP1 span [3, 13] was 92%.

For COc1ccc2c(c1)CC[C@@H]1[C@@H]2CC[C@]2(C)[C@@H](NCCCCCCN3C(=O)C=CC3=O)CC[C@@H]12 [U73122], the IP1 accumulation ([4]; MRGX4, Basal, U73122 30uM, Fig S1e) was 3.194 and 5.28, the “effect on nateglinide and DCA IP1 responses” value [4] was “inhibited” and the “effect on MRGPRX4 basal IP1 activity” value [4] was “abolished”.

C=C1C(=O)NC(C)C(=O)N(C)C(C)C(=O)NC(C(OC(=O)C(NC(C)=O)C(O)C(C)C)C(C)C)C(=O)N(C)C(C(C)OC)C(=O)OC(C)C(NC(C)=O)C(=O)OC(Cc2ccccc2)C(=O)N1C (centres unmarked) [YM254890] (Ac-T[PhLac][NMeDha]A[NMeA][X1][NMeT](Me); ester 1-C; configuration not given here) was tested, and the “IP1 accumulation with YM (Figure 1c)” value ([4]; MRGPRX4 0.125 pg DNA/cell) was 1.405, the “IP1 accumulation with YM (Figure 1c)” value ([4]; MRGPRX4 0.25 pg DNA/cell) was 1.309 and the “IP1 accumulation with YM (Figure 1c)” value ([4]; MRGPRX4 0.5 pg DNA/cell) was 1.374. For the same compound, the “IP1 accumulation with YM (Figure 1c)” value ([4]; MRGPRX4 1 pg DNA/cell) was 1.6019, the “IP1 accumulation with YM (Figure 1c)” value ([4]; MRGPRX4 2 pg DNA/cell) was 1.692 and the “effect on nateglinide and DCA IP1 responses” value [4] was “inhibited”. The “effect on MRGPRX4 basal IP1 activity” value [4] was “abolished” and the “IP1 accumulation with YM (Figure 1c)” value ([1]; YM 1 µM, MRGPRX4 0 pg DNA/cell, no agonist) was 1.719.

C[C@H]1c2cccc(O)c2C(=O)C2=C(O)[C@]3(O)C(=O)C(C(N)=O)=C(O)[C@@H](N(C)C)[C@@H]3[C@@H](O)[C@@H]21 [dox, doxycycline] was tested, and the EC50 [5, 14] was 8.07 ng/mL, the EC50 ([5]; Tet-On MRGPRX4 alone) was 4.05 ng/mL (≈ 9.1 nM) and the “total expression Basal” value [5, 14] was 0.003719. The “total expression Emax” value [5, 14] was 0.7930, the “total expression logEC50” value [5, 14] was 0.9067 and the total expression span [5, 14] was 0.7893. The “total expression Basal” value ([5]; Tet-On MRGPRX4 alone) was 0.009273, the “total expression Emax” value ([5]; Tet-On MRGPRX4 alone) was 0.9497 and the “total expression logEC50” value ([5]; Tet-On MRGPRX4 alone) was 0.6070. It also gave a total expression span ([5]; Tet-On MRGPRX4 alone) of 0.9404.
